Data as given in patent US9682069B2, “Methods of treating Dravet syndrome” (Ovid Therapeutics Inc., priority 2015, dated 2017).
Entries after “also recorded” stand apart in the source; their conditions may differ.

Columns and labels:
[1] = in vivo, po
[2] = Study of daytime performance after sleep restriction (Example 4); type: in vivo, human (healthy adults)
Method: The study included a 2-night single-blind placebo run-in period, a 4-night double-blind treatment period during which sleep was restricted to 5 hours and a 2-night single-blind placebo run-out period. The study included healthy male and female volunteers 18 to <55 years of age.
2-night run-in period: All patients received placebo
2-night run-out period: All patients received placebo
The primary endpoints included observations based on the Multiple Sleep Latency Test (MSLT) and Slow Wave Sleep (SWS) assessment.

[3] = three-month efficacy study, insomnia; cited from earlier work
[4] = Study of driving performance after gaboxadol administration (Example 3); type: in vivo, human (healthy male and female subjects); conditions: for effect on memory test, body sway, DSST or critical tracking: cognitive and psychomotor test battery before the driving test
Description: The study participants included healthy, male and female subjects between 21 and 45 years of age, with a valid drivers license for at least 3 years.
Following a cognitive and psychomotor test battery, the driving test started at 9 am and lasted for one hour.

[5] = 111 individuals with depression; cited from earlier work

## CCN(CC)CCN1C(=O)CN=C(c2ccccc2F)c2cc(Cl)ccc21 [Flurazepam]
[1]
  residual effect on primary endpoints Choice Reaction Time and Critical Flicker Fusion: showed significant effect

## Oc1noc2c1CCNC2 [gaboxadol, 4,5,6,7-tetrahydroisoxazolo [5,4-c]pyridine-3-ol]
[2]; gaboxadol 15 mg versus placebo
  daytime performance, effect sizes for the neurocognitive battery: no strong evidence that gaboxadol improves daytime performance
[2]; gaboxadol 15 mg, Sleep Restriction period
  subjective daytime sleepiness versus placebo: trend towards less subjective daytime sleepiness
[2]; gaboxadol 15 mg, Sleep Restriction period, p<0.001, 1 sided
  amount of slow wave sleep (SWS) versus placebo: significantly more SWS; also recorded: increases the amount of slow wave sleep
[2]; gaboxadol 15 mg, Sleep Restriction period, p=0.047, 1 sided
  daytime sleepiness (MSLT) versus placebo: significantly less daytime sleepiness; also recorded: protective effect on reducing daytime sleepiness
[2]; gaboxadol 15 mg, last two Sleep Restriction days
  MSLT, average difference versus placebo (longer): 2.01 min
[2]; gaboxadol 15 mg, last two Sleep Restriction days, LDA model, p=0.058, 1 sided
  Karolinska Sleepiness Score (KSS), average difference versus placebo (less): 0.68
[2]; gaboxadol 15 mg, last two Sleep Restriction nights
  SWS, average difference versus placebo (longer): 20.53 min
[3]
  effects in sleep onset and sleep maintenance: failed to show significant effects
[1]
  residual effect on primary endpoints Choice Reaction Time and Critical Flicker Fusion: did not show residual effect
  residual effects on other measurements (MSLT, DSST, Tracking, Memory tests, Body Sway, Leeds Sleep Evaluation Questionnaire): did not show any signs of residual effects
[4]; both the evening and the middle-of-the-night dose, 15 mg
  tolerability: well tolerated
[4]
  effect on memory test, body sway, DSST or critical tracking: no effect

## OC(c1ccccc1)(c1ccccc1)C1CCCCN1 (centres unmarked) [pipradrol]
[5]
  efficacy versus placebo in depression: not superior to placebo

## Cc1ccc(-c2nc3ccc(C)cn3c2CC(=O)N(C)C)cc1 [zolpidem]
[4]; dose at 4 am (gaboxadol 15 mg; zolpidem 10 mg), on-the-road driving test at 9 am
  effect on driving performance, middle-of-the-night administration: numerically greater effect

## CN1CCN(C(=O)OC2c3nccnc3C(=O)N2c2ccc(Cl)cn2)CC1 (centres unmarked) [zopiclone]
[4]
  effect on memory test, body sway, DSST or critical tracking: had effect on several of these tests
[4]; evening dose before bed (gaboxadol 15 mg; zopiclone 7.5 mg), on-the-road driving test at 9 am
  effect on driving performance, evening dose: numerically greater effect
